The source of these data is PMC7604909, “Structure of a GH51 α-L-arabinofuranosidase from Meripilus giganteus: conserved substrate recognition from bacteria to fungi” (Acta Crystallographica. Section D, Structural Biology, 2020).

Test [1] addresses T1, MgGH51 (Meripilus giganteus, UniProt Z9H0M4BQG1).
T1 construct: mature secreted enzyme, expressed in Aspergillus oryzae, N-glycosylated (Asn145, Asn245, Asn421, Asn487), untagged
T1 sequence (Z9H0M4BQG1 1-627): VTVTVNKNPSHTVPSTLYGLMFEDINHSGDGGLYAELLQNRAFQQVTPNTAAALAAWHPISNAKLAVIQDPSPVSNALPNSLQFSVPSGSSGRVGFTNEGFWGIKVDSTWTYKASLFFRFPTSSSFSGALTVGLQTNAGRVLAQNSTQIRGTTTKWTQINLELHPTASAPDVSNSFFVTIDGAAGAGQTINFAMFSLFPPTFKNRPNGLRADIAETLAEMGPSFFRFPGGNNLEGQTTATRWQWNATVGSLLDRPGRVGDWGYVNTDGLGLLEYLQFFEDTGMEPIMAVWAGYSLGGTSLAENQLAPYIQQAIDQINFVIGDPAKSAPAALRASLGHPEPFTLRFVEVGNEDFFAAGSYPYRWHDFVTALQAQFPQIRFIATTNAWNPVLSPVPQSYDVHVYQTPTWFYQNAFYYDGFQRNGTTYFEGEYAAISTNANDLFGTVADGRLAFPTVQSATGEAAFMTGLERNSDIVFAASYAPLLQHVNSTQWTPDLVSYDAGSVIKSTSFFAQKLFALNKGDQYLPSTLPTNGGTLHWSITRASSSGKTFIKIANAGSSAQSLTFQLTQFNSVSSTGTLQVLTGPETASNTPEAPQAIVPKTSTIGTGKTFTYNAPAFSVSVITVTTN
Put plainly: hydrolysis kinetics, released L-arabinose quantified on CarboPac PA20. As to conditions: 40 °C, 50 mM sodium acetate pH 4, 5 ng/ml enzyme, 0.02-2.5 mM substrate; kind of constant not told in main text. Format: biochemical.

Test [2] deals with T1, MgGH51. The test is described as follows: X-ray crystal structure, […] Å. As to conditions: type 1 crystal, about one equivalent of inhibitor, 1 h at room temperature; covalent, bound to nucleophile Glu429 (ring-opened cyclic sulfate); PDB code from Tables 3 and 4, the supplementary list pri. It counts as binding.
Test [3] concerns the target T1, MgGH51. The test is described as follows: X-ray crystal structure, […] Å. As to conditions: type 1 crystal, about one equivalent of inhibitor, 1 h at room temperature; covalent, bound to nucleophile Glu429 (ring-opened aziridine). It counts as binding.

Counter-ions that a name gives are not always drawn.

On to `OC[C@@H]1O[C@@H](O[C@@H]2[C@@H](O)[C@H](O[C@@H]3COC(O)[C@H](O)[C@H]3O)OC[C@H]2O)[C@H](O)[C@H]1O` (stereo partly drawn) [AX2, 3^2-α-L-Arabinofuranosyl-xylobiose], for which the “hydrolysis kinetics, released L-arabinose quantified on CarboPac PA20” value in test [1] is “Measurement of the hydrolytic kinetics of MgGH51 towards the AX2 and A3 oligosaccharides”.

Consider `O=S1(=O)O[C@@H]2[C@@H](CO)[C@H](O)[C@@H](O)[C@@H]2O1` [α-L-AraCS, α-L-arabinocyclophellitol cyclic sulfate], for which the “X-ray crystal structure, 1.71 Å” value in test [2] is “α-L-AraCS or α-L-AraAZI gave clear density for these two ligands bound to Glu429”.

As to `OC[C@@H]1O[C@@H](OC[C@@H]2O[C@@H](OC[C@@H]3OC(O)[C@H](O)[C@H]3O)[C@H](O)[C@H]2O)[C@H](O)[C@H]1O` (stereo partly drawn) [A3, α(1,5)-linked arabinotriose], the “hydrolysis kinetics, released L-arabinose quantified on CarboPac PA20” value in test [1] is “Measurement of the hydrolytic kinetics of MgGH51 towards the AX2 and A3 oligosaccharides”. `OC[C@H]1[C@H](O)[C@@H](O)[C@@H]2N[C@H]12` [α-L-AraAZI, α-L-arabinocyclophellitol aziridine]: in test [3], the “X-ray crystal structure, 1.54 Å” value was “α-L-AraCS or α-L-AraAZI gave clear density for these two ligands bound to Glu429”.
